One series addresses T1, hKv7.4 (Homo sapiens, UniProt P56696).
T1 construct: expressed in transfected cells; host or cells: CHO
Briefly: Kv7.4 HCS, FLIPR potassium assay. The series is classed as cell-based. How it is done:
Cell culture: Chinese hamster ovary (CHO) cell-line cells were cultured in F-12 nutrient mixture (Biological Industries) supplemented with 10% fetal bovine serum with 1% penicillin-streptomycin (Biological Industries) in a humidified 5% CO2 incubator at 37° C. To express the appropriate gene either Kv7.3/5, Kv7.4 or TRPA1 5 μg plasmid was transfected using Amaxa, DT-133 program, with p-3 Kit.
Kv7.3/5 and 7.4HCS using FLIPR Potassium Assay Kit: Kv7.3/5 and 7.4 HCS using the FLIPR Potassium Assay Kit was performed similarly to the Kv7.2/3 HCS, except that the Tecan Spark plate-reader injectors were primed with Tl+(1 mM Tl2SO4) or Tl++K+(1 mM Tl2SO4; 5 mM K2SO4) for Kv7.3/5, or Tl+(1 mM Tl2SO4) or Tl++K+(1 mM Tl2SO4; 10 mM K2SO4) for Kv7.4 for channel activation and data correction.
FLIPR Potassium Assay Kit: The FLIPR Potassium Assay Kit (R8222 FLIPR Potassium Assay Explorer Kits, Molecular Devices) was used with transfected CHO cells.
According to optimization process, to achieve a uniform and consistent screening condition of molecules, the following protocol was established: 2 days following transfection cells were seeded in 384-well, black-walled, clear-bottomed, at a density of 5,000 cells per well 24 hours before the assay conductance and incubated overnight in their normal growth medium. On the experiment day the medium was replaced with HBSS, HEPES, and the tested compound/vehicle (0.2% DMSO). Dye solution (prepared according to the manufacturer) was added to the wells and plates were incubated for 1.5 hour light-protected in room temperature. The Tecan Spark plate-reader injectors were primed with Tl+(1 mM Tl2SO4) or Tl++K+(1 mM Tl2SO4; 5 mM K2SO4) for Kv7.3/5 channel activation and data correction or Tl+(1 mM Tl2SO4) or Tl++K+(1 mM Tl2SO4; 10 mM K2SO4) for Kv7.4 for channel activation and data correction. […] To calculate IC50 values, the data was fitted to sigmoidal regression using Prism GraphPad.

A short description of a further series: HepG2 toxicity, ATPlite. The series is classed as cell-based, human. Particulars: human, hepg2 cells; 48 hours; read-out: HepG2 Toxicity LD50. Here is the method: Cell culture: HepG2 cell-line cells were cultured in EMEM (ATCC 30-2033) medium supplemented with 10% fetal bovine serum (Biological Industries) in a humidified 5% CO2 incubator at 37° C.
ATPlite™ 1step Kit: ATPlite™ 1step kit (PerkinElmer) was used in a 384-wells format to assess potential liver toxicity using HepG2 cells. This is an ATP detection system based on firefly luciferase luminescence for the quantitative evaluation of proliferation and cytotoxicity of cells. ATP is a marker for cell viability because it is present in all metabolically active cells and its concentration declines very rapidly when the cells undergo necrosis or apoptosis.
According to an optimization process done to achieve uniform and consistent screening condition of molecules, the following protocol was established: Cells were seeded in 384-well, black-walled, clear-bottomed, at a density of 4000 cells per well […] and incubated overnight in their normal growth medium. On day two (48 hours before viability measurement), the tested compounds and the positive control were applied to the wells according to the plate design. […] 48 hours later, reconstituted lyophilized substrate solution was added to each well and the sealed 384-well microplate was mixed for 2 minutes at 1100 rpm in an orbital microplate and plates were incubated for 10 minutes in the dark at room temperature. Right after, luminescence was measured in the Tecan plate reader. To estimate the LD50 and LD25 values the data was fitted to sigmoidal regression using Prism-GraphPad. […]

A short description of series [1]: Plasma protein binding, rat. Particulars: read-out: PPB fu (rat). The series is classed as in vitro ADME. Here is the method:
Incubation: Test compounds or the positive control warfarin were introduced into 10% plasma samples (Sourced from WuXi DMPK labs or from commercial vendors) to a concentration of 2 μM. A portion of 150 μL of the compound-containing plasma sample was added to one chamber of a 96-well equilibrium HTD dialysis plate. An equal volume of dialysis buffer was added to the corresponding chamber. A plasma sample was also taken before the incubation and designated as the T0 sample, serving for recovery calculation. The plate was incubated in a humidified 5% CO2 incubator at 37° C. for 4 hours. Each incubation was set up in triplicate.
Sample extraction and preparation: Following the incubation period, samples of 50 μL were drawn from both the plasma side and the buffer side and each was mixed with an equal volume of blank plasma. All matrix-matched samples were quenched using a stop solution containing an internal standard (IS).
Sample Analysis: The samples were subsequently analyzed by LC-MS/MS. The concentrations of the test compound in plasma and buffer samples were quantified based on the peak area ratio of analyte to the internal standard, with no requirement for a standard curve.

Series [2] in a line: Bidirectional permeability in Caco-2 cells. The series is classed as in vitro ADME, human. How it is done: Cell culture: Caco-2 cells (ATCC) were seeded onto polycarbonate (PC) membranes in 96-well insert plates. The cells were cultured in media for 21-28 days prior to performing the transport assays.
Validation of monolayer integrity: Once the Caco-2 cells formed a confluent monolayer, their integrity was evaluated using a Lucifer yellow rejection assay. The monolayer integrity was further evaluated by measuring, in duplicate wells, the unidirectional (A→B) permeability of nadolol (a low permeability marker) and metoprolol (a high permeability marker), as well as bidirectional permeability of digoxin (a P-glycoprotein substrate marker).
Assay: The compounds were assayed under bidirectional transport conditions (A→B and B→A) at a concentration of 2.00 μM (with DMSO≤1.0%), using a transport buffer composed of HBSS containing 10.0 mM HEPES, pH 7.40±0.05. The incubation was carried out at 37° C., with 5.0% CO2 and relatively saturated humidity for 2 hours.
The dosing solution was spiked and mixed with the transport buffer and a Stop Solution (containing an internal standard (IS)) to create a T0 sample.
Sample analysis: Following the incubation, all of the samples were analyzed using LC-MS/MS. The concentrations of the test compounds were expressed as peak area ratios of the analytes versus the IS.
In general terms: Passage across Caco-2 layers is used to estimate intestinal permeability.

By EC50 is commonly meant the midpoint of the concentration-response curve. Usually efflux ratio stands for a quotient of directional permeabilities that is used to spot active efflux.

SMILES strings stand for the structures. Like-named read-outs stand apart in the source and are kept apart here. A value given as a limit tells only on which side of the number the result lay.

T1 sequence (P56696 whole entry): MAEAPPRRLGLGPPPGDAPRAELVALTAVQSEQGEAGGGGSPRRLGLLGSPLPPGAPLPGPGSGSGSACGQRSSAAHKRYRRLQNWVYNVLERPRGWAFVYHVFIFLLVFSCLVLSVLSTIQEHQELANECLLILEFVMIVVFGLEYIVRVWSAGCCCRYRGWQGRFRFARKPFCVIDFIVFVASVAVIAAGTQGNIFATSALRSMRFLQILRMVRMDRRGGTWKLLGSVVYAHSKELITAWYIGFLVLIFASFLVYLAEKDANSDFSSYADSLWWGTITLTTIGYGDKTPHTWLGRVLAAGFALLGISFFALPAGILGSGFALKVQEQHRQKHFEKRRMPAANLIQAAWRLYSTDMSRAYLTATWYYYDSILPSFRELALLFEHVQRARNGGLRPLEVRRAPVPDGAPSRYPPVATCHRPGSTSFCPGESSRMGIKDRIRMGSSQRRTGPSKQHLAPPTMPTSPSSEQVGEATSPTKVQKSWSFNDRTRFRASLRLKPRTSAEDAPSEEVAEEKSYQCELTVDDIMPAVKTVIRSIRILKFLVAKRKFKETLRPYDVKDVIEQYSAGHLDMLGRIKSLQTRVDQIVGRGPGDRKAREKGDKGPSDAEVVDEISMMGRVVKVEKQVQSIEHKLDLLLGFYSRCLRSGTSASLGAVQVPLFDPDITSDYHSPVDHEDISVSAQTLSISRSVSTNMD

For the compound `O=C(Cc1cc(-n2cc(Cl)c3cc(Cl)cc(Cl)c32)ccc1F)NCCO` [Compound 627], the concentration giving a half-maximal response (EC50) on hKv7.4 (read-out: Kv7.4 EC50 HCS) was 88 µM. For the same compound, the CC50 at 48 h in the series “HepG2 toxicity, ATPlite” was found to be 3.37 µM. The fraction unbound at 4 h, 2 µM in series [1] was found to be 0.0004.
Turning to `O=C(Cc1ccnc(-n2cc(Cl)c3cc(Cl)cc(Cl)c32)n1)N[C@@H]1COC[C@H]1O` [Compound 820], the “Caco-2 Efflux ratio” value in series [2] (2.00 μM, 120 min) was 2.49. Also, the efflux ratio at 2 h, 2 µM in series [2] (human, Caco-2, pH 7.4, 2.00 μM) is below 3.
For the compound `O=C(Cc1nccc(-n2cc(Cl)c3cc(Cl)cc(Cl)c32)n1)NC1COCC1O` (stereo not shown) [Compound 760], the “Kv7.4 activity” value at hKv7.4 is “lacks any effect on hERG and Kv7.3/4/5 activity below 10 μM”. Besides, the EC50 at hKv7.4 (Thallium ions (Tl+) fluorescence, read-out: hKv7.4 EC50) was 46.2 µM. Besides, the “Caco-2 AB” value in series [2] stood at 7.6.
For `Cc1cn(-c2ccc(F)c(CC(=O)NCC(C)(C)O)c2)c2c(Cl)cc(Cl)cc12` [Compound 421], the EC50 at hKv7.4 (read-out: Kv7.4 EC50 HCS) was above 2 µM. For the same compound, in “HepG2 toxicity, ATPlite”, the CC50 at 48 h is above 1 µM. The fraction unbound at 4 h, 2 µM in series [1] was 0.0004.
With `O=C(Cc1cncc(-n2cc(Cl)c3cc(Cl)cc(Cl)c32)c1)N[C@@H]1COC[C@H]1O` [Compound 661], on hKv7.4, the “Kv7.4 activity” value is listed as “no measurable activity at any concentration tested”. Besides, at hKv7.4 (read-out: Kv7.4 EC50 HCS), the half-maximal effective concentration (EC50) amounted to 49.3 µM. The CC50 at 48 h in “HepG2 toxicity, ATPlite” is above 16.6 µM. Also, the “Caco-2 AB” value in series [2] was found to be 1.78. Moreover, in series [1], the fraction unbound at 4 h, 2 µM is 0.0029.

These data come from patent US20260327211A1, “MODULATORS OF A POTASSIUM CHANNEL AND OF TRPV1 CHANNEL AND USES THEREOF” (Bsense Bio Therapeutics Ltd., priority 2023, published 2026).
